# From patent US20260191863A1, “PYRROLOPYRIMIDINE COMPOSITIONS FOR TREATMENT OF ITK MEDIATED CONDITIONS” (ACLARIS THERAPEUTICS, INC., priority 2022, published 2026)
# Several values for one entry are separate records, joined by “and”; a condition that tells them apart may be missing. Equal values may be shown once. Read-outs that look alike come from different tables or passages of the source.
# How the values were obtained:
# ITK and JAK3 = test: SAD exploratory PD, all biomarker readouts; format: in vivo, human
# Protocol: (§1) Secondary Endpoints—Compound I plasma concentrations. Mean change from baseline in ex vivo stimulated pSTAT5 and pSTAT1 (signal transducer and activator of transcription); and in ex vivo stimulated IFNγ mRNA (interferon gamma messenger ribonucleic acid).
# Results: Sixty-three subjects completed the SAD study. […] Peak concentrations were reached within 2 hours after dosing.
# ITK & JAK (IFNγ protein) = test: SAD ex vivo PD: αCD3/IL15 stimulated IFNγ protein production; format: in vivo, human; conditions: for EC50: Homo sapiens; for Inhibition of dual ITK and JAK3-stimulated IFNγ protein production: SAD higher dose cohorts
# Source text: (§2) Summary of SAD data: FIGS. 4-8 and 9-13 show the SAD dose response, SAD exposure response, and SAD calculated response at Cmax by dose respectively for ITK (IL2 mRNA), ITK (IFNγ mRNA), JAK3 (pSTAT5, lymph), JAK3 (pSTAT5, CD3′ T), and ITK & JAK (IFNγ protein). Clinical and pre-clinical IC50 data for ITK (IL2 mRNA), ITK (IFNγ mRNA), JAK3 (pSTAT5, lymph), JAK3 (pSTAT5, CD3^+ T), and ITK & JAK (IFNγ protein) from the SAD study is shown in table 4.
# JAK3 (pSTAT5, CD3+ T) = test: Pre-clinical IL2 stimulated pSTAT5 in CD3+ T cells; format: cell-based; conditions: Homo sapiens, T-cell
# [1] = Phase 1 SAD study: safety and tolerability; format: in vivo, human
# Protocol: Primary Endpoints—Number and percentage of adverse events (AEs) and serious adverse events (SAEs); mean change from baseline in laboratory values, vital signs, and electrocardiograms (ECGs) abnormalities.
# Type of Study—This was an FIH, randomized, observer-blind, placebo-controlled study designed to evaluate the safety, tolerability, PK, and PD of Compound I in healthy subjects. The study consisted of: single ascending dose (SAD) cohorts (1-80 mg/day) plus formulation bridging and food effect (FE) cohorts.
# Approximately 64 male and female subjects were enrolled into 8 planned cohorts in the SAD study. In each cohort, a total of 8 subjects were randomized to receive a single oral capsule dose of Compound I (n=6) or placebo (n=2) in the morning with approximately 240 mL of water after an overnight fast of at least 8 hours.
# [2] = 13 week toxicology and toxicokinetic study in rats; format: in vivo, rat
# Source text: Purpose: Evaluation of toxicity and toxicokinetic (TK) for Compound I, following daily dosing for 13 weeks.
# [3] = test system: colitis (mouse T cell transfer model); test: Mouse T cell transfer model of inflammatory bowel disease; format: in vivo
# Source text: The study evaluated Compound I dose dependent ability to inhibit inflammation in the mouse T cell transfer model of inflammatory bowel disease.
# JAK3 (pSTAT5, lymph) = test: SAD ex vivo PD: IL2 stimulated pSTAT5 in lymphocytes; conditions: Homo sapiens, Lymphocyte; SAD study; read-out: Clinical EC50
# Source text: as §1, §2
# ITK (IFNγ mRNA) [4] = test: Pre-clinical αCD3/αCD28 stimulated IFNγ mRNA; format: cell-based; conditions: Homo sapiens
# [5] = test system: IL15 stimulated IFNγ protein; test: MAD ex vivo PD: IL15 stimulated IFNγ protein; format: in vivo; conditions: Homo sapiens
# Source text: Exploratory Endpoints—Mean change from baseline in cellular, extracellular (secreted), and/or message markers of inflammation.
# EC50 and IC50 data for αCD3 & αCD28 stimulated IL2mRNA, IL15 stimulated IFNγ protein, and αCD3 & IL15 stimulated IFNγ protein is shown in table 9.
# JAK3 = target: T1, JAK3 (Homo sapiens, UniProt P52333); test: Cell IC50 JAK3 hPBMC IL-2/pSTAT5; format: cell-based
# T1 construct: IL-2/pSTAT5; endogenous in cells; host or cells: human PBMC
# T1 sequence (P52333 1-1124): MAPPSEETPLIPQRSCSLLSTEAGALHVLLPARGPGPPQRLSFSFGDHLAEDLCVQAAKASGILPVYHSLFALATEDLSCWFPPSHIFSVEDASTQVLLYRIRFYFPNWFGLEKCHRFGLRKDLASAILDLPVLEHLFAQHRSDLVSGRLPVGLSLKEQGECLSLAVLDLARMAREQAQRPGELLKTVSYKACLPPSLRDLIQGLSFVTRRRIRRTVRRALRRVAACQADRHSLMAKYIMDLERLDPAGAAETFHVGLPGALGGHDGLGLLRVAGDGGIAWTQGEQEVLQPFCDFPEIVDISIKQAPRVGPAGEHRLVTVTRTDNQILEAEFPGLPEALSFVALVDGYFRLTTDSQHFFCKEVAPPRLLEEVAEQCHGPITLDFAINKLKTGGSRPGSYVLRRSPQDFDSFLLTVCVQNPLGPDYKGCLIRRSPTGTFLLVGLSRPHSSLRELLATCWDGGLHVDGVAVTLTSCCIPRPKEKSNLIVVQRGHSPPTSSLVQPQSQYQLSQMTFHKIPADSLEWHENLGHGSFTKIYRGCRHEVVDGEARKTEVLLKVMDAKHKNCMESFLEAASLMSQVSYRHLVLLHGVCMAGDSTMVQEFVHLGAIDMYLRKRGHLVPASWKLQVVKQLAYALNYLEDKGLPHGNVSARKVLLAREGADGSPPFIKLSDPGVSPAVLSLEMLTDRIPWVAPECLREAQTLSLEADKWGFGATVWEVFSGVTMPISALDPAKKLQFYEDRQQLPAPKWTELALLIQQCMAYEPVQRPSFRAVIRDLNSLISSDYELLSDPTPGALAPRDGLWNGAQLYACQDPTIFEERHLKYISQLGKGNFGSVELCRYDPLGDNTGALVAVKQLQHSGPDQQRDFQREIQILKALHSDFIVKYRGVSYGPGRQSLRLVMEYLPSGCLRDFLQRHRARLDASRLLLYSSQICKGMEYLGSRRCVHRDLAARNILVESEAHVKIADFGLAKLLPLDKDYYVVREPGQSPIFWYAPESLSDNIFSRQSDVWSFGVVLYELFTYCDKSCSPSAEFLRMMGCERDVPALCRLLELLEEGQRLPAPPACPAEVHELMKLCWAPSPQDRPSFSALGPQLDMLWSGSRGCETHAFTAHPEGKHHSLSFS
# ITK (IFNγ mRNA) [6] = test: SAD ex vivo PD: αCD3/αCD28 stimulated IFNγ mRNA production; format: in vivo; conditions: Homo sapiens; SAD study; read-out: Clinical EC50
# Source text: as §1, §2
compound,measurement,setting,value
"C=CC(=O)N1C[C@H](Nc2ncnc3[nH]cc([C@H]4CC4(F)F)c23)CC[C@@H]1C [Compound I, 1-((2S,5R)-5-((5-((R)-2,2-difluorocyclopropyl)-7H-pyrrolo[2,3-d]pyrimidin-4-yl)amino)-2-methylpiperidin-1-yl)prop-2-en-1-one]",Modulation of all PD biomarker readouts,ITK and JAK3,dose- and time-dependent modulation
same,PD markers of ITK (αCD3/αCD28 induced IL2 and IFNγ mRNA) and JAK3 (IL2 induced pSTAT5) activation,ITK and JAK3,dose-dependently inhibited
same,Inhibition of biomarker readouts,"ITK and JAK3; 2 hours post treatment, doses of 15 mg to 80 mg",Near-complete inhibition
same,EC50,"ITK & JAK (IFNγ protein); SAD study, read-out: Clinical EC50",7.3 nM
same,EC50,ITK & JAK (IFNγ protein); read-out: SAD EC50,0.0026 µg/mL and 7.3 nM
same,Inhibition of dual ITK and JAK3-stimulated IFNγ protein production,ITK & JAK (IFNγ protein),Near complete inhibition
same,Inhibition of dual ITK and JAK3-stimulated IFNγ protein production,ITK & JAK (IFNγ protein); maintained for 12 hours,> 50%
same,EC50,"JAK3 (pSTAT5, CD3+ T)",140 ± 49.3 nM
same,"Deaths, serious AEs, discontinuations due to AEs",[1]; SAD,"no deaths, serious AEs, or discontinuations due to AEs"
same,Safety and tolerability conclusion,[1]; SAD,safe and well tolerated
same,Severity of TEAEs,[1]; SAD,mild and transient
same,Transient increase in CK at follow-up,[1]; SAD highest dose group (80 mg),2 subjects
same,Transient increase in transaminases at follow-up,[1]; SAD highest dose group (80 mg),1 subject
same,Number of TEAEs in Compound I treated subjects,"[1]; SAD, 13 subjects",14
same,Changes in WBC count,"[1]; SAD, during treatment and at follow-up",No clinically meaningful changes
same,Nephrotoxicity,[2]; Compound I toxicity studies,no evidence of nephrotoxicity
same,Cmax,"[2]; in vivo, 80 mg/kg, rat, NOAEL 80 mpk",13800 ng/mL
same,AUC(0-t),"[2]; in vivo, 80 mg/kg, rat, NOAEL 80 mpk, read-out: AUC0-24 h at NOAEL",45000 ng·h/mL
same,Adverse effects,"[2]; rat, 5, 20, 80 mpk, 13 weeks",No adverse effects observed
same,No observed adverse effect level,"[2]; rat, daily dosing 13 weeks",80 mpk
same,Colitis,[3],inhibited colitis
same,Effect compared with anti-IL12 (P40),[3],The effect was greater than anti-IL12 (P40)
same,"Inflammation in proximal and distal colon, and ileum",[3],dose dependently decreased inflammation
same,EC50,"JAK3 (pSTAT5, lymph)",137 nM
same,EC50,ITK (IFNγ mRNA) [4],17.3 ± 3 nM
same,EC50,[5],0.0022 µg/mL and 6.1 nM
same,"Potency relative to Ritlecitinib, JAK3 hPBMC IL-2/pSTAT5",JAK3,2.3 fold
same,IC50,"JAK3; hPBMC, IL-2/pSTAT5",23 nM
same,JAK specificity,JAK3; vs other JAK kinases like JAK2,completely specific for JAK3
same,EC50,ITK (IFNγ mRNA) [6],12.7 nM
